Experimental data reported in patent EP4707280A1, “1,4-CINEOLE DERIVATIVE AND INTERMEDIATE THEREOF, HERBICIDE CONTAINING SAID DERIVATIVE AS ACTIVE INGREDIENT, METHOD FOR USING HERBICIDE, AND METHOD FOR PREPARING AGROCHEMICAL COMPOSITION” (HOKKO CHEMICAL INDUSTRY CO., LTD., priority 2023, dated 2024).

Experiments:
Type in all cases: in vivo
[1] = test system: Scirpus juncoides; test: Test Example 1: herbicidal effect test by soil application in paddy rice; settings: 120 g active ingredient per 10 ares, applied immediately after sowing, flooded pots, 14 days after application; for pest or weed control at 1200 g/ha: Schoenoplectiella juncoides, soil, 336 h, read-out: weed inhibition rate
Procedure, shortened: (§1)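 Treatment: 120 g active ingredient per 10 ares as a water-diluted emulsifiable concentrate, dropped onto flooded pots immediately after sowing. Thirty seeds per species went 0–1 cm into puddled paddy soil with 16:16:16 fertilizer, with ~3 cm flooding maintained in a glass greenhouse.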

[2] = test system: Echinochloa crus-galli var. formosensis; test: as above; settings: 120 g active ingredient per 10 ares, applied immediately after sowing, flooded pots, 14 days after application; for pest or weed control at 1200 g/ha: Echinochloa crus-galli, soil, 336 h, read-out: weed inhibition rate
Procedure, shortened: as §1

[3] = test system: Echinochloa crus-galli; test: Test Example 4: herbicidal effect test by stem and leaf treatment in upland field; settings: 120 g per 10 ares, sprayed seven days after sowing, upland soil, 14 days after application; for inhibition at 1200 g/ha: Echinochloa crus-galli, read-out: weed inhibition rate
[4] = test system: Echinochloa crus-galli; test: Test Example 3: herbicidal effect test by soil application in upland field; settings: 120 g per 10 ares, sprayed one day after sowing, 14 days after application; for inhibition at 1200 g/ha: Echinochloa crus-galli, read-out: weed inhibition rate
Procedure, shortened: (§2)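 Weed inhibition (%) was assessed 14 days after treatment, in duplicate per concentration group. Seeds had been mixed into the upper 1 cm of upland alluvial loam, and the soil surface was sprayed one day later with the diluted emulsifiable concentrate at 120 g active ingredient per 10 ares.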

[5] = test system: Digitaria ciliaris; test: as above; settings: 120 g per 10 ares, sprayed one day after sowing, 14 days after application; for inhibition at 1200 g/ha: Digitaria ciliaris, read-out: weed inhibition rate
Procedure, shortened: as §2

[6] = test system: Amaranthus viridis; test: as above; settings: 120 g per 10 ares, sprayed one day after sowing, 14 days after application; for inhibition at 1200 g/ha: Amaranthus viridis, read-out: weed inhibition rate
Procedure, shortened: as §2

[7] = test system: Echinochloa crus-galli; test: Test Example 7: herbicidal effect test by soil application in upland field (low dose); settings: 7.5 g per 10 ares, sprayed one day after sowing, 14 days after application
Procedure, shortened: (§3)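 Duplicate pots of alluvial loam, seeds incorporated in the surface 1 cm. Soil surface sprayed 1 d after sowing (EC in water, 100 L/10 a; 7.5 g a.i./10 a). Endpoint: % inhibition, day 14.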

[8] = test system: Digitaria ciliaris; test: as above; settings: 7.5 g per 10 ares, sprayed one day after sowing, 14 days after application
Procedure, shortened: as §3

[9] = test system: Scirpus juncoides; test: Test Example 2: herbicidal effect test by application during growth period of paddy rice; settings: 120 g per 10 ares, applied seven days after sowing, flooded pots, 14 days after application
Procedure, shortened: (§4)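 Greenhouse pots of flooded paddy soil, seeded shallowly with 30 seeds per weed, are treated on day 7 by dropper with diluted emulsifiable concentrate equal to 120 g a.i./10 a. Duplicate pots are scored for inhibition rate 14 days post-application.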

[10] = test system: Echinochloa crus-galli var. formosensis; test: as above; settings: 120 g per 10 ares, applied seven days after sowing, flooded pots, 14 days after application; for inhibition at 1200 g/ha: Echinochloa crus-galli, read-out: weed inhibition rate
Procedure, shortened: as §4

[11] = test system: Monochoria vaginalis; test: Test Example 1: herbicidal effect test by soil application in paddy rice; settings: 120 g active ingredient per 10 ares, applied immediately after sowing, flooded pots, 14 days after application; for pest or weed control at 1200 g/ha: Pontederia vaginalis, soil, 336 h, read-out: weed inhibition rate
Protocol: (§5) Wagner pots with an area of […] were filled with paddy soil, followed by addition of water and incorporation of chemical fertilizer (N:P:K = 16:16:16), after which puddling was performed. After that, seeds of Echinochloa crus-galli var. formosensis, broad-leaved weeds (Lindernia pyxidaria and Monochoria vaginalis), and Scirpus juncoides were sown at a depth of 0 cm to 1 cm, 30 seeds each. Immediately after sowing, the pots were flooded and a water depth of approximately 3 cm was maintained. Subsequent management was conducted in a glass greenhouse. Immediately thereafter, an emulsifiable concentrate prepared according to Formulation Example 5 using the compound shown below was diluted with water, and a specified amount of the diluted solution was applied by dropper. The amount of the active ingredient to be applied was equivalent to 120 g per 10 ares.
(§6) The present test was conducted in duplicate for each chemical concentration group, and the weed inhibition rate (%) was determined 14 days after chemical application using the following formula (Math. 1). [formula]

[12] = test system: Echinochloa crus-galli var. formosensis; test: Test Example 5: herbicidal effect test by soil application in paddy rice (low dose); settings: 7.5 g per 10 ares, applied immediately after sowing, flooded pots, 14 days after application; for inhibition at 75 g/ha: Echinochloa crus-galli, soil, 336 h, read-out: weed inhibition rate
Procedure, shortened: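 7.5 g a.i./10 a applied by dropper into ~3 cm floodwater immediately post-sowing (seeds 0–1 cm, 30 per species; puddled fertilized paddy soil, glasshouse). Duplicates; day-14 inhibition %.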

[13] = test system: Echinochloa crus-galli var. formosensis; test: Test Example 6: herbicidal effect test by application during growth period of paddy rice (low dose); settings: 7.5 g per 10 ares, applied seven days after sowing, flooded pots, 14 days after application; for inhibition at 75 g/ha: Echinochloa crus-galli, read-out: weed inhibition rate
Procedure, shortened: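 Emulsifiable concentrate, water-diluted, dropped onto flooded paddy pots 7 days post-sowing at 7.5 g active ingredient/10 a. Greenhouse-grown weeds; percent inhibition scored at day 14 after treatment.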

[14] = test system: Echinochloa crus-galli; test: Test Example 8: herbicidal effect test by stem and leaf treatment in upland field (low dose); settings: 7.5 g per 10 ares, sprayed seven days after sowing, upland soil, 14 days after application; for inhibition at 75 g/ha: Echinochloa crus-galli, read-out: weed inhibition rate
[15] = test system: Digitaria ciliaris; test: Test Example 4: herbicidal effect test by stem and leaf treatment in upland field; settings: 120 g per 10 ares, sprayed seven days after sowing, upland soil, 14 days after application; for inhibition at 1200 g/ha: Digitaria ciliaris, read-out: weed inhibition rate
[16] = test system: Chenopodium album; test: Test Example 3: herbicidal effect test by soil application in upland field; settings: 120 g per 10 ares, sprayed one day after sowing, 14 days after application, read-out: weed inhibition rate
Procedure, shortened: as §2

[17] = test system: Digitaria ciliaris; test: Test Example 8: herbicidal effect test by stem and leaf treatment in upland field (low dose); settings: Digitaria ciliaris; 7.5 g per 10 ares; sprayed seven days after sowing, upland soil; 14 days after application; read-out: weed inhibition rate
[18] = test system: Monochoria vaginalis; test: Test Example 2: herbicidal effect test by application during growth period of paddy rice; settings: Pontederia vaginalis; 120 g per 10 ares; applied seven days after sowing, flooded pots; 14 days after application; read-out: weed inhibition rate
Procedure, shortened: as §4

[19] = test system: Lindernia pyxidaria; test: Test Example 1: herbicidal effect test by soil application in paddy rice; settings: 336 h, 120 g active ingredient per 10 ares, applied immediately after sowing, flooded pots, 14 days after application, read-out: weed inhibition rate
Protocol: as §5, §6

[20] = test system: Lindernia pyxidaria; test: Test Example 2: herbicidal effect test by application during growth period of paddy rice; settings: 120 g per 10 ares, applied seven days after sowing, flooded pots, 14 days after application, read-out: weed inhibition rate
Procedure, shortened: as §4

CCOC(C)O[C@H]1C[C@]2(C)O[C@@]1(C(C)C)C[C@H]2OCc1ccccc1F (stereo partly drawn) [1-213, (1R,28,4S,5R)-2-(1-ethoxyethoxy)-5-((2-fluorobenzyl)oxy)-1-isopropyl-4-methyl-7-oxabicyclo[2.2.1]heptane]
≥ 80%: weed inhibition rate [1] | weed inhibition rate [2] | weed inhibition rate [3] | weed inhibition rate [4] | weed inhibition rate [5] | weed inhibition rate [6] | weed inhibition rate [7] | weed inhibition rate [8] | weed inhibition rate [9] | weed inhibition rate [10] | weed inhibition rate [11] | weed inhibition rate [12] | weed inhibition rate [13] | weed inhibition rate [14] | weed inhibition rate [15]

CC(C)[C@]12C[C@@H](OCc3ccccc3F)[C@](C)(CC1c1ccccc1)O2 (stereo partly drawn) [1-322, (1S,2R,4R)-2-((2-fluorobenzyl)oxy)-4-isopropyl-1-methyl-5-phenyl-7-oxabicyclo[2.2.1]heptane]
≥ 80%: pest or weed control at 1200 g/ha [2] | inhibition at 1200 g/ha [3] | inhibition at 1200 g/ha [4] | inhibition at 1200 g/ha [16] | inhibition at 1200 g/ha [10] | inhibition at 75 g/ha [12] | inhibition at 75 g/ha [13] | inhibition at 75 g/ha [14] | inhibition at 75 g/ha [17] | inhibition at 1200 g/ha [15]

CC(C)[C@]12C[C@@H](OCCOCc3ccccc3)[C@](C)(C[C@@H]1Br)O2 [1-725, (1S,2R,4R,5S)-5-bromo-1-methyl-2-(2-phenylmethoxyethoxy)-4-isopropyl-7-oxabicyclo[2.2.1]heptane]
≥ 80%: inhibition at 1200 g/ha [3] | inhibition at 1200 g/ha [6] | inhibition at 1200 g/ha [10]

CC(C)[C@]12C[C@@H](OCc3ccccc3F)[C@](C)(CC1c1ccccc1F)O2 (stereo partly drawn) [1-922, (1S,2R,4R)-2-((2-fluorobenzyl)oxy)-5-(2-fluorophenyl)-4-isopropyl-1-methyl-7-oxabicyclo[2.2.1]heptane]
≥ 80%: pest or weed control at 1200 g/ha [1] | pest or weed control at 1200 g/ha [2] | inhibition at 1200 g/ha [3] | inhibition at 1200 g/ha [4] | inhibition at 1200 g/ha [10] | inhibition at 1200 g/ha [18] | pest or weed control at 1200 g/ha [19] | pest or weed control at 1200 g/ha [11] | inhibition at 75 g/ha [12] | inhibition at 1200 g/ha [15]

Cc1cccc(C2C[C@]3(C)O[C@@]2(C(C)C)C[C@H]3OCc2ccccc2F)c1 (stereo partly drawn) [1-926, (1S,2R,4R)-2-((2-fluorobenzyl)oxy)-4-isopropyl-1-methyl-5-(m-tolyl)-7-oxabicyclo[2.2.1]heptane]
≥ 80%: pest or weed control at 1200 g/ha [1] | pest or weed control at 1200 g/ha [2] | inhibition at 1200 g/ha [4] | inhibition at 1200 g/ha [6] | inhibition at 1200 g/ha [16] | inhibition at 1200 g/ha [10]

Cc1ccc(CO[C@@H]2C[C@]3(C(C)C)O[C@@]2(C)CC3=O)cc1 [2-350, (1R,4S,5R)-1-isopropyl-4-methyl-5-[(4-methylbenzyl)oxy]-7-oxabicyclo[2.2.1]heptan-2-one]
≥ 80%: pest or weed control at 1200 g/ha [1] | pest or weed control at 1200 g/ha [2] | inhibition at 1200 g/ha [3] | inhibition at 1200 g/ha [4] | inhibition at 1200 g/ha [5] | inhibition at 1200 g/ha [16] | inhibition at 1200 g/ha [10] | pest or weed control at 1200 g/ha [11] | inhibition at 75 g/ha [12] | inhibition at 75 g/ha [13] | inhibition at 75 g/ha [14] | inhibition at 1200 g/ha [15]

Cc1cccc(CO[C@@H]2C[C@]3(C(C)C)O[C@@]2(C)CC3=O)c1 [2-352, (1R,4S,5R)-1-isopropyl-4-methyl-5-((3-methylbenzyl)oxy)-7-oxabicyclo[2.2.1]heptan-2-one]
≥ 80%: pest or weed control at 1200 g/ha [1] | pest or weed control at 1200 g/ha [2] | inhibition at 1200 g/ha [3] | inhibition at 1200 g/ha [4] | inhibition at 1200 g/ha [5] | inhibition at 1200 g/ha [20] | inhibition at 1200 g/ha ([9]; Schoenoplectiella juncoides, read-out: weed inhibition rate) | inhibition at 1200 g/ha [10] | inhibition at 75 g/ha [12] | inhibition at 75 g/ha [13] | inhibition at 1200 g/ha [15]
